Source: ChEMBL document CHEMBL3885861, “Open TG-GATES”

Organism: Rattus norvegicus
Test: Open TG-GATES - Regimen: Single
Type: toxicity, organism-based, Sprague-Dawley
Set-up: regimen Single, gender Male, age 6 weeks
Conditions: in vivo, po, 30 mg/kg, route gavage, dose level High; for APTT / Bas / Eos / Fbg / Hb / Ht / Lym / MCH / MCHC / MCV / Mono / Neu / PT / Plat / RBC / Ret / WBC: tissue Blood; for KIDNEY_L / KIDNEY_R / KIDNEY_TOTAL: tissue Kidney; for LIVER: tissue Liver; for A/G / ALP / ALT / AST / BUN / CRE / Ca / Cl / DBIL / GLC / IP / K / LDH / Na / PL / RALB / TBIL / TC / TG / TP / gamma-GTP: tissue Plasma

C=CCO [ALLYL ALCOHOL]
TERMINAL_BW (3 h): 222.7 g | APTT (3 h): 19.6 s | Bas (3 h): 0% | Eos (3 h): 1% | Fbg (3 h): 211.6 mg/dL | Hb (3 h): 13.4 g/dL | Ht (3 h): 38.7% | Lym (3 h): 75% | MCH (3 h): 21.7 pg | MCHC (3 h): 34.8% | MCV (3 h): 62.3 fL | Mono (3 h): 3% | Neu (3 h): 20.4% | PT (3 h): 12.4 s | Plat (3 h): 134.6 x10_4/uL | RBC (3 h): 622.4 x10_4/ul | Ret (3 h): 7.4% | WBC (3 h): 88.9 x10_2/uL | KIDNEY_L (3 h): 1 g | KIDNEY_R (3 h): 1 g | KIDNEY_TOTAL (3 h): 1.9 g | LIVER (3 h): 10.3 g | A/G (3 h): 1.5 | ALP (3 h): 976.6 IU/L | ALT (3 h): 42.8 IU/L | AST (3 h): 77.2 IU/L | BUN (3 h): 12 mg/dL | CRE (3 h): 0.3 mg/dL | Ca (3 h): 11 mg/dL | Cl (3 h): 101.6 meq/L | DBIL (3 h): 0.5 mg/dL | GLC (3 h): 202.2 mg/dL | IP (3 h): 8.9 mg/dL | K (3 h): 3.7 meq/L | LDH (3 h): 233.4 IU/L | Na (3 h): 140.8 meq/L | PL (3 h): 177 mg/dL | RALB (3 h): 3.4 g/dL | TBIL (3 h): 0.6 mg/dL | TC (3 h): 80 mg/dL | TG (3 h): 255 mg/dL | TP (3 h): 5.6 g/dL | gamma-GTP (3 h): 1.2 IU/L | TERMINAL_BW (6 h): 220.4 g | APTT (6 h): 19.3 s | Bas (6 h): 0% | Eos (6 h): 1% | Fbg (6 h): 217 mg/dL | Hb (6 h): 13.5 g/dL | Ht (6 h): 39.5% | Lym (6 h): 67% | MCH (6 h): 20.5 pg | MCHC (6 h): 34% | MCV (6 h): 60.2 fL | Mono (6 h): 5.2% | Neu (6 h): 25.8% | PT (6 h): 12.4 s | Plat (6 h): 129.3 x10_4/uL | RBC (6 h): 658 x10_4/ul | Ret (6 h): 7.1% | WBC (6 h): 127.5 x10_2/uL | KIDNEY_L (6 h): 0.9 g | KIDNEY_R (6 h): 0.9 g | KIDNEY_TOTAL (6 h): 1.9 g | LIVER (6 h): 9.4 g | A/G (6 h): 1.4 | ALP (6 h): 1023.4 IU/L | ALT (6 h): 101.2 IU/L | AST (6 h): 168.4 IU/L | BUN (6 h): 10.2 mg/dL | CRE (6 h): 0.4 mg/dL | Ca (6 h): 10.5 mg/dL | Cl (6 h): 102.4 meq/L | DBIL (6 h): 0.1 mg/dL | GLC (6 h): 198.4 mg/dL | IP (6 h): 9.2 mg/dL | K (6 h): 3.8 meq/L | LDH (6 h): 564.8 IU/L | Na (6 h): 140.6 meq/L | PL (6 h): 168 mg/dL | RALB (6 h): 3.1 g/dL | TBIL (6 h): 0.2 mg/dL | TC (6 h): 85.4 mg/dL | TG (6 h): 97.6 mg/dL | TP (6 h): 5.3 g/dL | gamma-GTP (6 h): 2 IU/L | TERMINAL_BW (9 h): 216.4 g | APTT (9 h): 18.7 s | Bas (9 h): 0% | Eos (9 h): 1% | Fbg (9 h): 222.2 mg/dL | Hb (9 h): 13.2 g/dL | Ht (9 h): 38.8% | Lym (9 h): 66.8% | MCH (9 h): 21.3 pg | MCHC (9 h): 34.1% | MCV (9 h): 62.5 fL | Mono (9 h): 3.2% | Neu (9 h): 28.6% | PT (9 h): 12.4 s | Plat (9 h): 129.2 x10_4/uL | RBC (9 h): 620.6 x10_4/ul | Ret (9 h): 7.4% | WBC (9 h): 104.8 x10_2/uL | KIDNEY_L (9 h): 1 g | KIDNEY_R (9 h): 1 g | KIDNEY_TOTAL (9 h): 2 g | LIVER (9 h): 9.3 g | A/G (9 h): 1.5 | ALP (9 h): 1007 IU/L | ALT (9 h): 30.6 IU/L | AST (9 h): 64.2 IU/L | BUN (9 h): 11.4 mg/dL | CRE (9 h): 0.4 mg/dL | Ca (9 h): 10.3 mg/dL | Cl (9 h): 101.4 meq/L | DBIL (9 h): 0.086 mg/dL | GLC (9 h): 206.8 mg/dL | IP (9 h): 10.5 mg/dL | K (9 h): 4.2 meq/L | LDH (9 h): 200 IU/L | Na (9 h): 139 meq/L | PL (9 h): 141.2 mg/dL | RALB (9 h): 3.1 g/dL | TBIL (9 h): 0.1 mg/dL | TC (9 h): 73 mg/dL | TG (9 h): 63.8 mg/dL | TP (9 h): 5.2 g/dL | gamma-GTP (9 h): 0.8 IU/L | TERMINAL_BW (24 h): 231.4 g | APTT (24 h): 18.2 s | Bas (24 h): 0% | Eos (24 h): 1% | Fbg (24 h): 257.2 mg/dL | Hb (24 h): 13 g/dL | Ht (24 h): 38.3% | Lym (24 h): 67.4% | MCH (24 h): 20.9 pg | MCHC (24 h): 34.1% | MCV (24 h): 61.4 fL | Mono (24 h): 4.4% | Neu (24 h): 26.8% | PT (24 h): 11.9 s | Plat (24 h): 138.1 x10_4/uL | RBC (24 h): 625 x10_4/ul | Ret (24 h): 6.1% | WBC (24 h): 103.6 x10_2/uL | KIDNEY_L (24 h): 1 g | KIDNEY_R (24 h): 1 g | KIDNEY_TOTAL (24 h): 2 g | LIVER (24 h): 11.5 g | A/G (24 h): 1.4 | ALP (24 h): 963.8 IU/L | ALT (24 h): 33.6 IU/L | AST (24 h): 64 IU/L | BUN (24 h): 12.6 mg/dL | CRE (24 h): 0.4 mg/dL | Ca (24 h): 10.4 mg/dL | Cl (24 h): 102.4 meq/L | DBIL (24 h): 0.052 mg/dL | GLC (24 h): 203.8 mg/dL | IP (24 h): 7.6 mg/dL | K (24 h): 3.6 meq/L | LDH (24 h): 209.8 IU/L | Na (24 h): 141 meq/L | PL (24 h): 148 mg/dL | RALB (24 h): 3 g/dL | TBIL (24 h): 0.1 mg/dL | TC (24 h): 81.6 mg/dL | TG (24 h): 83 mg/dL | TP (24 h): 5.1 g/dL | gamma-GTP (24 h): 0.8 IU/L
